Results from PubChem BioAssay AID1356 (Sanford-Burnham Center for Chemical Genomics, 2008).

Tested on: HeLa thapsigargin-induced death, ATPlite luminescence, 24 h
Test: protection from thapsigargin-induced HeLa death, SAR follow-up, cell-based, HeLa cervical carcinoma, ATP content (AID 1356)
Conditions: at 25 µM, stronger effect = higher value
[1] = measured here: survival at thapsigargin 15 uM
[2] = measured here: survival at thapsigargin 20 uM
[3] = measured here: survival, thapsigargin level col 9
[4] = measured here: survival, thapsigargin level col 10

Row | Structure (SMILES) | survival [%] | survival [1] [%] | survival [2] [%] | survival [3] [%] | survival [4] [%]
1 | COc1ccc(C2CC(=O)C3=C(C2)Nc2ccccc2NC3c2cccc(Oc3ccccc3)c2)cc1OC (stereo not given) | 90 | 96 | 102 | 87 | 85
2 | COc1ccc(C2CC(=O)C3=C(C2)Nc2ccccc2NC3c2cccc(Br)c2)cc1OC (stereo not given) | 87 | 93 | 90 | 86 | 92
3 | COc1ccc(C2CC(=O)C3=C(C2)Nc2ccccc2NC3c2ccccc2C(F)(F)F)cc1OC (stereo not given) | 92 | 107 | 72 | 93 | 91
4 | O=C1CC(c2ccccc2)CC2=C1C(c1c(F)cccc1Cl)Nc1ccccc1N2 (stereo not given) | 118 | 89 | 18 | 93 | 99
5 | COc1ccc(C2CC(=O)C3=C(C2)Nc2ccccc2NC3c2cc(C)ccc2C)cc1 (stereo not given) | 99 | 83 | 24 | 80 | 81
6 | CCCOc1ccc(C2Nc3ccccc3NC3=C2C(=O)CC(c2ccc(OC)c(OC)c2)C3)cc1 (stereo not given) | 91 | 109 | 90 | 88 | 90
7 | CCOc1cc(C2Nc3ccccc3NC3=C2C(=O)CC(c2ccc(OC)cc2)C3)cc(Cl)c1O (stereo not given) | 129 | 29 | 8 | 90 | 106
8 | CCOc1cccc(C2Nc3ccccc3NC3=C2C(=O)CC(c2ccc(OC)cc2)C3)c1 (stereo not given) | 96 | 8 | 3 | 81 | 106
9 | CSc1ccc(C2Nc3ccccc3NC3=C2C(=O)CC(c2ccccc2)C3)cc1 (stereo not given) | 85 | 77 | 23 | 81 | 83
10 | CC1(C)CC(=O)C2=C(C1)Nc1ccccc1NC2c1ccc(-c2ccccc2)cc1 (stereo not given) | 97 | 106 | 114 | 92 | 88
11 | COc1ccc(C2CC(=O)C3=C(C2)Nc2ccccc2NC3c2cccc(C(F)(F)F)c2)cc1OC (stereo not given) | 90 | 100 | 122 | 88 | 90
